From PMC8119889, “Computational Identification of a Putative Allosteric Binding Pocket in TMPRSS2” (Frontiers in Molecular Biosciences, 2021)

Biological target: T1, TMPRSS2 (transmembrane serine protease 2) (Homo sapiens, UniProt O15393)
T1 construct: Recombinant human TMPRSS2 (106-492aa, 6xHisTag)
Test: microscale thermophoresis (His-tag RED-tris-NTA labelled protein, […])
Type: binding

T1 sequence (O15393 106-492): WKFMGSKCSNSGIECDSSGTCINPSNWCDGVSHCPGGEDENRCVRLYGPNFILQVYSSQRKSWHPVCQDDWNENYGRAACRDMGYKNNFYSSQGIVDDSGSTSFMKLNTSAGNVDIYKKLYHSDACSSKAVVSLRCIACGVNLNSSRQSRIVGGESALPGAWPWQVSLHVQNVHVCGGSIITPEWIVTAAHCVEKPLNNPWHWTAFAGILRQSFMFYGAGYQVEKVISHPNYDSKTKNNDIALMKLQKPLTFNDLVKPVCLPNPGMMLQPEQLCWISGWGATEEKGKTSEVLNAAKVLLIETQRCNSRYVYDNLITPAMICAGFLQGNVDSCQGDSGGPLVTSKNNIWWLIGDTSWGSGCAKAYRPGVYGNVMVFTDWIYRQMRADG

CN(Cc1cc(Br)cc(Br)c1N)C1CCCCC1 [BH, bromhexine]
Kd: 24 ± 13 µM
